Laboratory results as given in paper PMC7037732, “Synthesis of Combretastatin A-4 and 3′-Aminocombretastatin A-4 derivatives with Aminoacid Containing Pendants and Study of their Interaction with Tubulin and as Downregulators of the VEGF, hTERT and c-Myc Gene Expression” (Molecules, 2020).

Columns and labels:
[1] = test system: HT-29 (human colon adenocarcinoma); test: Inhibition of cell proliferation (MTT), HT-29; type: cell-based; settings: Homo sapiens, 48 h of treatment (footnote), average ±SD of three experiments
[2] = test system: HEK-293 (human embryonic kidney cells); test: Inhibition of cell proliferation (MTT), nontumor HEK-293; type: cell-based; settings: Homo sapiens, 48 h of treatment (footnote), average ±SD of three experiments
A-549 cells = test: Cell cycle distribution by flow cytometry; type: cell-based, human
Procedure, shortened: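 A-549 cells were harvested, fixed in cold 70% ethanol (30 min, −20 °C), then stained with 50 µg/mL propidium iodide plus 100 µg/mL RNase A in PBS for 20 min at room temperature in the dark. Flow cytometry used 488 nm excitation and 620 nm emission, giving the percentage of cells in G2/M.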

hTERT gene = hTERT gene expression by RT-qPCR in HT-29 cells; type: cell-based, human
Method: The effect on the expression of VEGF, hTERT and c-Myc genes has been studied for CA-4 and its derivatives that show selectivity indexes higher than 0.9 on the HT-29 cell line. The studied derivatives, together with the concentrations to which they have been tested, are CA-4 (15 μM); 4.1 (Gly, 5 μM); 4.5 (L-Pro, 25 μM); 4.9 (L-Met, 25 μM); 6.2 (D-Leu, 25 μM); 6.3 (D-Phe, 25 μM); 6.4 (D-Pro, 25 μM) and 6.5 (D-Ser, 10 μM). The expression of the genes was determined by RT-qPCR methodology, as described in the Materials and Methods section.
As regards AmCA-4 derivatives, the effect on the expression of the VEGF, hTERT and c-Myc genes has been studied on those that show IC50 in the low nanomolar range on the HT-29 cell line and/or on compounds whose selectivity indexes with respect to this cell line are higher than 1. The studied compounds, together with the concentrations to which they have been tested, are: CA-4 (15 μM), AmCA-4 (15 nM), 7.1 (7 nM), 7.2 (1.5 nM), 7.3 (4 nM), 7.4 (15 nM), 7.5 (2 nM), 7.7 (7 nM), 7.8 (15 nM), 7.9 (30 nM), 8.1 (7 nM), 8.2 (3 nM), 8.3 (10 nM), 8.4 (1.5 nM), 8.5 (4 nM), 8.7 (7 nM), 8.8 (3 nM) and 8.9 (4 nM).
HT-29 cells at 70–80% confluence were collected, and 1.5 × 10^5 cells were placed in a six-well plate in 1.5 mL of the medium. After 24 h, cells were incubated with the corresponding compounds for 48 h. Cells were collected, and the total cellular RNA from the HT-29 cells was isolated using an Ambion RNA Extraction Kit, according to the manufacturer’s instructions. The cDNA was synthesized by MMLV-RT with […] of extracted RNA and oligo(dT)15, according to the manufacturer’s instructions. Genes were amplified by a thermal cycler and StepOnePlus™ TaqMan® probes. TaqMan® Gene Expression Master Mix Fast, containing the appropriate buffer for the amplification conditions, dNTPs, thermostable DNA polymerase enzyme and a passive reference probe, was used. To amplify each of the genes, the predesigned primers sold by Life Technologies TaqMan® Gene Expression Assays Hs99999903-m1 (β-actin), Hs00900055-m1 (VEGF), Hs00972646-m1 (hTERT) and Hs00153408-m1 (c-Myc) were used.

[3] = A-549, 24 h, concentration per compound as in Tables 6 and 7
[4] = Homo sapiens; HT-29, 48 h, 25 μM; control 100
[5] = Homo sapiens, HT-29, 48 h, 25 μM, control 100

IC50 ([1]; HT-29, Table 1) [µM] | Structure (SMILES) | IC50 ([2]; HEK293, Table 1) [µM] | IC50 ([1]; HT-29, 48 h, Table 1) [µM] | IC50 ([2]; HEK293, 48 h, Table 1) [µM] | G0/G1 (A-549 cells; A-549, 24 h, 75 μM) [%] | G2/M (A-549 cells; A-549, 24 h, 75 μM) [%] | S (A-549 cells; A-549, 24 h, 75 μM) [%] | Effect on the cell cycle (A-549 cells; [3]) | mrna remaining at 25 µM (hTERT gene; [5]) [%] | further results
– | COc1ccc(/C=C\c2cc(OC)c(OC)c(OC)c2)cc1N [AmCA-4, 3′-aminocombretastatin A-4] | – | – | – | – | – | – | – | – | IC50 ([1]; HT-29, 48 h, Table 2): 0.022 ± 0.001 µM; IC50 ([2]; HEK293, 48 h, Table 2): 0.007 ± 0.001 µM; G0/G1 (A-549 cells; A-549, 24 h, 0.125 µM): 26 ± 1%; G2/M (A-549 cells; A-549, 24 h, 0.125 µM): 59 ± 2%; S (A-549 cells; A-549, 24 h, 0.125 µM): 15 ± 2%; mrna remaining at 0.015 µM (hTERT gene; Homo sapiens; HT-29, 48 h, 15 nM; control 100): 50%
– | COc1ccc(/C=C\c2cc(OC)c(OC)c(OC)c2)cc1OCC(=O)NCC(=O)O [Compound 4.1] | – | 5 ± 1 | 5 ± 1 | 68 | 20 | 12 | do not exert any significant effect on the cells | – | mrna remaining at 5 µM (hTERT gene; Homo sapiens, HT-29, 48 h, 5 μM, control 100): 56%
12 ± 5 | COc1ccc(/C=C\c2cc(OC)c(OC)c(OC)c2)cc1OCC(=O)N[C@H](C(=O)O)C(C)C [Compound 4.2] | 4 ± 1 | – | – | – | – | – | – | – | G0/G1 (A-549 cells; A-549, 24 h, 50 μM): 17 ± 2%; G2/M (A-549 cells; A-549, 24 h, 50 μM): 67 ± 4%; S (A-549 cells; A-549, 24 h, 50 μM): 16 ± 3%; cells accumulated in the G2/M phase (A-549 cells; A-549, 24 h, concentration per compound as in Tables 6 and 7, control 14%): 50–70%; mrna remaining at 25 µM (hTERT gene; [4]): 82%
– | COc1ccc(/C=C\c2cc(OC)c(OC)c(OC)c2)cc1OCC(=O)N[C@@H](CCSC)C(=O)O [Compound 4.9] | – | 32 ± 6 | 40 ± 4 | 76 | 13 | 11 | do not exert any significant effect on the cells | 38 | downregulation of hTERT gene expression (hTERT gene; HT-29, 48 h; discussion; concentration per compound): more than 55%
– | COc1ccc(/C=C\c2cc(OC)c(OC)c(OC)c2)cc1OCC(=O)N[C@H](CC(C)C)C(=O)O [Compound 6.2] | – | 47 ± 9 | 49 ± 12 | 85 ± 1 | 12 ± 1 | 3 ± 2 | do not exert any significant effect on the cells | 87 | –
27 ± 5 | COc1ccc(/C=C\c2cc(OC)c(OC)c(OC)c2)cc1OCC(=O)N[C@H](Cc1ccccc1)C(=O)O [Compound 6.3] | 46 ± 6 | – | – | 74 ± 3 | 14 ± 2 | 11 ± 6 | do not exert any significant effect on the cells | – | mrna remaining at 25 µM (hTERT gene; [4]): 68%
– | COc1ccc(/C=C\c2cc(OC)c(OC)c(OC)c2)cc1OCC(=O)N1CCC[C@@H]1C(=O)O [Compound 6.4] | – | 50 ± 11 | 53 ± 9 | 71 | 15 | 14 | do not exert any significant effect on the cells | 51 | –
– | COc1ccc(/C=C\c2cc(OC)c(OC)c(OC)c2)cc1OCC(=O)N[C@H](CO)C(=O)O [Compound 6.5] | – | 13 ± 1 | 14 ± 4 | 64 | 18 | 18 | do not exert any significant effect on the cells | – | mrna remaining at 10 µM (hTERT gene; Homo sapiens, HT-29, 48 h, 10 μM, control 100): 77%

Structure (SMILES) | IC50 ([1]; HT-29, Table 1) [µM] | IC50 ([2]; HEK293, Table 1) [µM] | IC50 ([1]; HT-29, 48 h, Table 1) [µM] | IC50 ([2]; HEK293, 48 h, Table 1) [µM] | G0/G1 (A-549 cells; A-549, 24 h, 75 μM) [%] | G2/M (A-549 cells; A-549, 24 h, 75 μM) [%] | S (A-549 cells; A-549, 24 h, 75 μM) [%] | Effect on the cell cycle (A-549 cells; [3]) | mrna remaining at 25 µM (hTERT gene; [5]) [%] | further results
COc1ccc(/C=C\c2cc(OC)c(OC)c(OC)c2)cc1O [CA-4, combretastatin A-4] | 4.2 ± 0.5 | 25 ± 3 | – | – | – | – | – | – | – | cells accumulated in the G2/M phase (A-549 cells; 24 h): 60%; G0/G1 (A-549 cells; A-549, 24 h, 0.05 μM): 25 ± 1%; G2/M (A-549 cells; A-549, 24 h, 0.05 μM): 60 ± 2%; S (A-549 cells; A-549, 24 h, 0.05 μM): 15 ± 1%; mrna remaining at 15 µM (hTERT gene; Homo sapiens; HT-29, 48 h, 15 μM; control (DMSO) 100; normalized to β-actin): 85%
